Literature values in US20200354441A1, “TREATMENT OF DISORDERS” (Apellis Pharmaceuticals, Inc., priority 2017, published 2020).

Key:
[1] = test system: complement activation (alternative pathway); details: alternative pathway-mediated erythrocyte lysis assay (WO2004/026328)
complement activation = details: relative to compstatin amidated at the C-terminus; published data (WO2004/026328, WO2007044668, Mallik 2005, Katragadda 2006)

| Molecule | IC50 [1] [µM] | Activity over compstatin (complement activation) [× more] |
| --- | --- | --- |
| CC[C@H](C)[C@H](N)C(=O)N[C@H]1CSSC[C@@H](C(=O)N[C@H](C(N)=O)[C@@H](C)O)NC(=O)[C@H](CCCN=C(N)N)NC(=O)[C@H](Cc2cnc[nH]2)NC(=O)[C@H](Cc2cnc[nH]2)NC(=O)CNC(=O)[C@H](Cc2c[nH]c3ccccc23)NC(=O)[C@H](CC(=O)O)NC(=O)[C@H](CCC(N)=O)NC(=O)[C@H](C(C)C)NC(=O)[C@H](C(C)C)NC1=O [Compstatin, H-ICVVQDWGHHRCT-CONH2] | 12 |  |
| Ac-ICVVQDWGHHRCT-CONH2 [Ac-compstatin] |  | 3 |
| Ac-ICVWQD(5fW)GAHRCT-CONH2 [Ac-V4W/W7(5fW)/H9A] |  | 121 |
| Ac-ICVWQDWGAHRCdT-COOH [Ac-V4W/H9A/T13dT -OH] |  | 55 |
| H-GICV(6fW)QD(6fW)GAHRCTN-COOH (6-fluoro-Trp, C-terminal acid) [+G/V4(6fW)/W7(6fW)H9A+N-OH] |  | 126 |
